Data: publication PMC6934184, “Selective DNA-PKcs inhibition extends the therapeutic index of localized radiotherapy and chemotherapy” (The Journal of Clinical Investigation, 2019)

Target: T1, CSF1R (FMS) (Homo sapiens, UniProt P07333)
T1 construct: purchased Thermo Fisher Scientific (Life Technologies) SelectScreen
Assay: SelectScreen Z'LYTE
Format: biochemical
In short: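 Percent values come from Thermo SelectScreen profiling of NU5455, combining activity and binding assays. CSF1R was run in Z'LYTE format at Km app ATP, and CAMK1 in Adapta format with ATP listed at 10.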

T1 sequence (P07333 20-972): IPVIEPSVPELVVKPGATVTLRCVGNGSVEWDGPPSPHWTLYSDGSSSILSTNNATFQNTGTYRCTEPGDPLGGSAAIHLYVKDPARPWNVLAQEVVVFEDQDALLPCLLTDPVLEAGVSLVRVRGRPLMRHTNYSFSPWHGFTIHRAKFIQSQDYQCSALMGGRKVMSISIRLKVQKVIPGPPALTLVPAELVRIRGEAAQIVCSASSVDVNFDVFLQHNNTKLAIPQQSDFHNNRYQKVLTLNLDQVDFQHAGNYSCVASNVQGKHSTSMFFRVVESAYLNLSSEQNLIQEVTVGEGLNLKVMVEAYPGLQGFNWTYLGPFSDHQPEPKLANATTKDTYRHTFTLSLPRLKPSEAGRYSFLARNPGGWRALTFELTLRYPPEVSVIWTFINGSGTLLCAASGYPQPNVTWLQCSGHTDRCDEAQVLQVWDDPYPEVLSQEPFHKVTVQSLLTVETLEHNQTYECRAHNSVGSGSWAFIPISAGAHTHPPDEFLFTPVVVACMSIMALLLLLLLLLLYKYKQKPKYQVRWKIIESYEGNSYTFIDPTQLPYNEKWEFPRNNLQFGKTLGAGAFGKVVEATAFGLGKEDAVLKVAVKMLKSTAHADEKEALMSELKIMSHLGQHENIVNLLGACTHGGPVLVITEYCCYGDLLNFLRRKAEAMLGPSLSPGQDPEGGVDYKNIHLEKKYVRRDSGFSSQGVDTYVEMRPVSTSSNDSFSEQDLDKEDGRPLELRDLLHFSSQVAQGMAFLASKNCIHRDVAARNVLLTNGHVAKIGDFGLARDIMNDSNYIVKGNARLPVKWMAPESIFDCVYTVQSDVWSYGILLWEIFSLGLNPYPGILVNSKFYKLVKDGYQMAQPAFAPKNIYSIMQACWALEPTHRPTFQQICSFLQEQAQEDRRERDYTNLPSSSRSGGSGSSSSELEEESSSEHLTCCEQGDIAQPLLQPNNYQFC

For CN(C(=O)CN1CCOCC1)c1ccc2sc3c(-c4cccc5c(=O)cc(N6CC7CCC(C6)O7)oc45)cccc3c2c1 [NU5455], the inhibition at 1 µM was 4.3%.
